Source: patent US20120245137A1 (Zalicus Pharmaceuticals Ltd., priority 2009, published 2012)
Read-outs that look alike come from different tables or passages of the source.

How the values were obtained:
Type in all cases: cell-based
Human Cav 2.2 channels = Human Cav 2.2 channels (Homo sapiens, UniProt Q00975); assay: Fluorescent assay for CaV2.2 channels using potassium depolarization (VIPR/FLIPR); details: FLIPR data; for CAv2.2 IC50 Ratio closed/inact.: ratio closed/inactivated IC50
Outline: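 Fluo-4 calcium fluorescence (480/535 nm) was recorded on VIPR or FLIPR after depolarization to 70 mM final potassium. Before this, cells were preincubated 30 min at 25 °C with compound in 4–30 mM potassium, so that state-dependent block could be assessed; the cells were HEK293 coexpressing Cav2.2, α2δ, β and Kir2.3.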

T-type calcium channel [1] = target: T-type calcium channel (Homo sapiens, UniProt O43497); assay: T-type channel blocking, FLIPR data (Table 6); details: CAv3.1
Excerpt: (§1) Another method, high-throughput spectrophotometric assay, utilizes loading of the cell lines with a fluorescent dye sensitive to intracellular calcium concentration and subsequent examination of the effects of compounds on the ability of depolarization by potassium chloride or other means to alter intracellular calcium levels.

T-type calcium channel [2] = target: T-type calcium channel (Homo sapiens, UniProt O95180); assay: T-type channel blocking, FLIPR data (Table 6); details: for CAv3.2 IC50 Ratio closed/inact.: CAv3.2, ratio closed/inactivated IC50
Excerpt: as §1

CAv1.2 = CAv1.2 (Homo sapiens, UniProt Q13936); assay: FLIPR data, CAv1.2 channel blocking (Table 6); details: for CAv1.2 IC50 Ratio closed/inact.: ratio closed/inactivated IC50
[3] = closed state, read-out: CAv2.2 IC50 Closed
[4] = inactivated state, read-out: CAv2.2 IC50 Inact.
[5] = CAv3.2, closed state, read-out: CAv3.2 IC50 Closed
[6] = CAv3.2, inactivated state, read-out: CAv3.2 IC50 Inact.
[7] = closed state, read-out: CAv1.2 IC50 Closed
[8] = inactivated state, read-out: CAv1.2 IC50 Inact.

Sequence of Human Cav 2.2 channels (Q00975 whole entry): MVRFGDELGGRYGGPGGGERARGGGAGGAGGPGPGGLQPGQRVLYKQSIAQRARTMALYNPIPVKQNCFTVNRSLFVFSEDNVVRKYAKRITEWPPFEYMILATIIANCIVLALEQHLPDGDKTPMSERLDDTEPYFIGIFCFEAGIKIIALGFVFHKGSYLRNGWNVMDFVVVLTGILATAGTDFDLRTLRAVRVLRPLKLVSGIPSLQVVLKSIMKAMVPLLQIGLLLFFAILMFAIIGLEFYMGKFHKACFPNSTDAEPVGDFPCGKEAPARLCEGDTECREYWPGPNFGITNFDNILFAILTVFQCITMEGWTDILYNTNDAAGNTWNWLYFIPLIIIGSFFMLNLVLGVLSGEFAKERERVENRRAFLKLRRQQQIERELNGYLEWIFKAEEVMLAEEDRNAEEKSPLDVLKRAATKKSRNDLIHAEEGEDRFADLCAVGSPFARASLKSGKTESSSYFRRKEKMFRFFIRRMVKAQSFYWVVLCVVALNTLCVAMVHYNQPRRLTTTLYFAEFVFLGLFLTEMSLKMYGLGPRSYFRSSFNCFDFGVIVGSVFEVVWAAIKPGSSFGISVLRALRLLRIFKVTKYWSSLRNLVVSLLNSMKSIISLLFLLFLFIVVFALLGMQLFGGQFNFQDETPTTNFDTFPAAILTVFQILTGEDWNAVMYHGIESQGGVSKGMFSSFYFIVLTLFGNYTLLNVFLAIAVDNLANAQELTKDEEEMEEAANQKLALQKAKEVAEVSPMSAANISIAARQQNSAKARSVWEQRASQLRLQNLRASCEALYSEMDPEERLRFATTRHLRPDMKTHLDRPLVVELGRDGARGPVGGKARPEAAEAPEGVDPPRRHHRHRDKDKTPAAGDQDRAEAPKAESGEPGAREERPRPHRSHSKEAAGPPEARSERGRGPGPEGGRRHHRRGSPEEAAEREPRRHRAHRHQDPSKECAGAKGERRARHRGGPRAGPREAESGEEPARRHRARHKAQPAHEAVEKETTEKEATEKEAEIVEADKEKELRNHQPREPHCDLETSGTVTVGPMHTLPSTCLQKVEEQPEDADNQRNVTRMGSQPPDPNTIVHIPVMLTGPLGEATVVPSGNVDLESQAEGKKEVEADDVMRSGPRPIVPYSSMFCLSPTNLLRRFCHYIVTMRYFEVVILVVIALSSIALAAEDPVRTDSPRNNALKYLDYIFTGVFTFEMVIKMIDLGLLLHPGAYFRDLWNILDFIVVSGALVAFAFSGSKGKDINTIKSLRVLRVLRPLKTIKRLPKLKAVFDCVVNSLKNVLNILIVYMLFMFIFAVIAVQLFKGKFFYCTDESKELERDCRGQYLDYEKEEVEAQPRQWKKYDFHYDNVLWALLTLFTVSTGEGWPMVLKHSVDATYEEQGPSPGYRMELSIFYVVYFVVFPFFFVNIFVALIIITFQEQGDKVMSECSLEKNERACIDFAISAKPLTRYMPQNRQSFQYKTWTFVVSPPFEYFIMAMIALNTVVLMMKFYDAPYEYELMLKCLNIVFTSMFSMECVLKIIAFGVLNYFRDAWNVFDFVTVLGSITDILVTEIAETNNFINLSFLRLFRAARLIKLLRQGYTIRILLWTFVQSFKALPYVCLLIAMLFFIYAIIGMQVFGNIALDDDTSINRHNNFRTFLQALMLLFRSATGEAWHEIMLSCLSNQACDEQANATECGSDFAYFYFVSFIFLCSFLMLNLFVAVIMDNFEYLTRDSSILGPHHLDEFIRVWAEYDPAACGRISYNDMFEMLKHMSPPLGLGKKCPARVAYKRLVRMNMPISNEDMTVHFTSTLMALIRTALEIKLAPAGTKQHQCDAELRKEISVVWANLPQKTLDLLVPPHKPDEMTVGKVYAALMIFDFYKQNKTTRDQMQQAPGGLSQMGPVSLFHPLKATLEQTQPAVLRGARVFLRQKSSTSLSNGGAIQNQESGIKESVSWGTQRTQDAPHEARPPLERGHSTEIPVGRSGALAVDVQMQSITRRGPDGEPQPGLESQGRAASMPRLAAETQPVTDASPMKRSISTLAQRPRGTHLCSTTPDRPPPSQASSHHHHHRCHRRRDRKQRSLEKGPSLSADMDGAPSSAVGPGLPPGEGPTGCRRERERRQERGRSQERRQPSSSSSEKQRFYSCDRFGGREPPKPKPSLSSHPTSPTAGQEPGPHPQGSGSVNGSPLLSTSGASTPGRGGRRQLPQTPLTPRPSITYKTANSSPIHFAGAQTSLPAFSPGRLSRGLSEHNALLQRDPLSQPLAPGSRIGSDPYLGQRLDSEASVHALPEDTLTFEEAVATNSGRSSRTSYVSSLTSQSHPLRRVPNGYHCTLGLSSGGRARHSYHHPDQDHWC
Sequence of Human Cav 2.2 channels (P54289 25-1103 partner): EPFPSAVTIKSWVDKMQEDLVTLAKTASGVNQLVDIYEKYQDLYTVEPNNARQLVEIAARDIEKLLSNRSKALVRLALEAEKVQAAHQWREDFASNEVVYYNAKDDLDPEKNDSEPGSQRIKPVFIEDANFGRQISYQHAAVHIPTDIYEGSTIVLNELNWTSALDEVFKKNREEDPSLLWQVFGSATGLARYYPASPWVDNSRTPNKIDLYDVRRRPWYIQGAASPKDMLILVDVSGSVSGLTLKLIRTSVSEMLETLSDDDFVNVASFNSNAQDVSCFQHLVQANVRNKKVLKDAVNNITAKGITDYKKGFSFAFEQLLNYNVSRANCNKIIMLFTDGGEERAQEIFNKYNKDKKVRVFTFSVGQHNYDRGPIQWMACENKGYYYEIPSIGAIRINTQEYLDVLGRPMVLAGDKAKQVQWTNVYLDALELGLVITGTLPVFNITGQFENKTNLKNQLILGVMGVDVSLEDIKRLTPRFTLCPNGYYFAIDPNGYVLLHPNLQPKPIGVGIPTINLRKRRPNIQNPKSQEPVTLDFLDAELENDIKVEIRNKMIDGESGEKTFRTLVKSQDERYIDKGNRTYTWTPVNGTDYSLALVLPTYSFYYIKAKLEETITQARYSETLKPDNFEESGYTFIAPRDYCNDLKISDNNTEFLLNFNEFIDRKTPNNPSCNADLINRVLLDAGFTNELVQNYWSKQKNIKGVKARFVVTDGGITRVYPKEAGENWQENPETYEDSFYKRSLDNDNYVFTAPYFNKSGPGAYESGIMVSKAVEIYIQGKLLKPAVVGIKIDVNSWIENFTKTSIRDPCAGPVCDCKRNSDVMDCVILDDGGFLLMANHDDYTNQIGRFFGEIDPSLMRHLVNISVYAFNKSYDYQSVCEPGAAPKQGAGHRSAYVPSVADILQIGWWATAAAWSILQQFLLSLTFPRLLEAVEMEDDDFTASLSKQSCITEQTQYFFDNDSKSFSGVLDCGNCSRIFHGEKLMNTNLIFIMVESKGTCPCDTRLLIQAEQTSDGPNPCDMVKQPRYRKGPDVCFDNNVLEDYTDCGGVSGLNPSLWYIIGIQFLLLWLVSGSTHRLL
Sequence of Human Cav 2.2 channels (P54284 whole entry partner): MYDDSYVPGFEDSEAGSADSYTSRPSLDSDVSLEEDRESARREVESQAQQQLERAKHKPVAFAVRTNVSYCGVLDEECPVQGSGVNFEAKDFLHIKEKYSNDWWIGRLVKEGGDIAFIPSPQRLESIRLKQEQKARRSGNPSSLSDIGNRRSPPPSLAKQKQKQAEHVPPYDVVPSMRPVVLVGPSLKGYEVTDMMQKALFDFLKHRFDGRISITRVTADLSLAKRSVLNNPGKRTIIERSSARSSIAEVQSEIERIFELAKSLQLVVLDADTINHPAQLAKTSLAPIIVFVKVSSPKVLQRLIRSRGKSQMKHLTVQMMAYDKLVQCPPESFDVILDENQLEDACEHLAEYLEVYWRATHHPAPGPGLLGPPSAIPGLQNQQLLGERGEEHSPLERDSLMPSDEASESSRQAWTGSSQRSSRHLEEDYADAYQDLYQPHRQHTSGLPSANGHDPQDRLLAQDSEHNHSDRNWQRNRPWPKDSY

Row | SMILES | IC50 (Human Cav 2.2 channels; [3]) [nM] | IC50 (Human Cav 2.2 channels; [4]) [nM] | CAv2.2 IC50 Ratio closed/inact. (Human Cav 2.2 channels) | IC50 (T-type calcium channel [1]) [nM] | IC50 (T-type calcium channel [2]; [5]) [nM] | IC50 (T-type calcium channel [2]; [6]) [nM] | CAv3.2 IC50 Ratio closed/inact. (T-type calcium channel [2]) | IC50 (CAv1.2; [7]) [nM] | IC50 (CAv1.2; [8]) [nM] | CAv1.2 IC50 Ratio closed/inact. (CAv1.2)
1 | CC(C)([C@H]1C[C@H](NS(=O)(=O)c2ccc(C(F)(F)F)cc2Cl)C1)S(=O)(=O)c1cccc(C(F)(F)F)c1 [Compound 666] | 10000 | 650 | 15.4 | 1590 | 2160 | 2170 | 1 | ≥ 10000 | 2290 | 4.4
2 | CC(C)([C@H]1C[C@H](NS(=O)(=O)c2ccc(F)c(C(F)(F)F)c2)C1)S(=O)(=O)c1cccc(C(F)(F)F)c1 [Compound 667] | 10000 | 1080 | 9.3 | 2500 | 2700 | 2160 | 1.3 | 7760 | 2560 | 3
3 | CC(C)([C@H]1C[C@H](NS(=O)(=O)c2ccc(C(F)(F)F)nc2)C1)S(=O)(=O)c1cccc(C(F)(F)F)c1 [Compound 668] | 7340 | 790 | 9.3 | 2950 | 3830 | 2920 | 1.3 | ≥ 10000 | 3730 | 2.7
4 | CC(C)([C@H]1C[C@H](NS(=O)(=O)c2ccc(OC(F)(F)F)cc2)C1)S(=O)(=O)c1cccc(C(F)(F)F)c1 [Compound 669] | 7900 | 960 | 8.2 | 2740 | 2650 | 2550 | 1 | ≥ 10000 | 3330 | 3
5 | CC(C)([C@H]1C[C@H](NC(=O)c2cncc(C(F)(F)F)c2)C1)S(=O)(=O)c1cccc(C(F)(F)F)c1 [Compound 671] | 5470 | 280 | 19.5 | 9280 | 5730 | 6360 | 0.9 | ≥ 10000 | 7820 | 1.3
6 | CC(C)([C@H]1C[C@H](NC(=O)c2ccnc(C(F)(F)F)c2)C1)S(=O)(=O)c1cccc(C(F)(F)F)c1 [Compound 672] | 7420 | 310 | 23.9 | 5050 | 5930 | 4050 | 1.5 | ≥ 10000 | 3300 | 3
7 | CC(C)([C@H]1C[C@H](NC(=O)c2ccc(Cl)cn2)C1)S(=O)(=O)c1cccc(C(F)(F)F)c1 [Compound 673] | 1880 | 200 | 9.4 | 6560 | 5370 | 4330 | 1.2 | ≥ 10000 | 4570 | 2.2
8 | CC(C)([C@H]1C[C@H](NC(=O)c2ccc(OCC(F)(F)F)nc2)C1)S(=O)(=O)c1cccc(C(F)(F)F)c1 [Compound 674] | 3010 | 290 | 10.4 | 9430 | 2740 | 2390 | 1.1 | 7730 | 1740 | 4.4
9 | CC(C)([C@H]1C[C@H](NC(=O)c2ccc(C(F)(F)F)nc2)C1)S(=O)(=O)c1cccc(C(F)(F)F)c1 [Compound 675] | 8630 | 490 | 17.6 | ≥ 10000 | 7760 | 6230 | 1.2 | ≥ 10000 | 5990 | 1.7
10 | CC(C)([C@H]1C[C@H](NC(=O)c2ccc(C(F)(F)F)cn2)C1)S(=O)(=O)c1cccc(C(F)(F)F)c1 [Compound 676] | 1850 | 160 | 11.6 | 3870 | 4270 | 3790 | 1.1 | 7960 | 3250 | 2.4
11 | CC(C)([C@H]1C[C@H](NC(=O)c2ccc(C(F)(F)F)cc2)C1)S(=O)(=O)c1cccc(C(F)(F)F)c1 [Compound 677] | 2860 | 220 | 13 | 2790 | 1780 | 1820 | 1 | 6350 | 2230 | 2.8
12 | CC(C)S(=O)(=O)c1cc(C(F)(F)F)cnc1C(=O)NC[C@H]1C[C@@H](C(C)(C)S(=O)(=O)c2cccc(C(F)(F)F)c2)C1 [Compound 681] | 9890 | 160 | 61.8 | 4820 | 5930 | – | – | ≥ 10000 | 2620 | 3.8
13 | CC(C)(C1CC(CNC(=O)c2cc(C(F)(F)F)n[nH]2)C1)S(=O)(=O)c1cccc(C(F)(F)F)c1 (stereo not shown) [Compound 682] | 6640 | 530 | 12.5 | ≥ 10000 | 2310 | – | – | ≥ 10000 | 2160 | 4.6
14 | CC(C)([C@H]1C[C@@H](CNC(=O)c2ccnc(C(F)(F)F)n2)C1)S(=O)(=O)c1cccc(C(F)(F)F)c1 [Compound 683] | 2770 | 260 | 10.7 | 5530 | 5450 | – | – | ≥ 10000 | 6110 | 1.6
15 | CC(C)([C@H]1C[C@@H](CNC(=O)c2ncc(C(F)(F)F)cn2)C1)S(=O)(=O)c1cccc(C(F)(F)F)c1 [Compound 684] | 8030 | 650 | 12.4 | 4650 | 4670 | – | – | ≥ 10000 | 5350 | 1.9
16 | CC(C)([C@H]1C[C@@H](CNC(=O)c2ccc(F)c(Cl)c2)C1)S(=O)(=O)c1cccc(C(F)(F)F)c1 [Compound 685] | 1870 | 180 | 10.4 | 380 | 440 | – | – | 4710 | 1010 | 4.7
17 | CC(C)([C@H]1C[C@@H](CNC(=O)c2ccc(OCC(F)(F)F)nc2)C1)S(=O)(=O)c1cccc(C(F)(F)F)c1 [Compound 686] | 2470 | 260 | 9.5 | 1170 | 1200 | – | – | 4420 | 1100 | 4
18 | CC(C)([C@H]1C[C@@H](CNC(=O)c2ccnc(C(F)(F)F)c2)C1)S(=O)(=O)c1cccc(C(F)(F)F)c1 [Compound 687] | 4110 | 530 | 7.8 | 2610 | 1650 | – | – | ≥ 10000 | 2390 | 4.2
